Tests used:
[1] = target: T1, human V-1 receptor (Homo sapiens, UniProt P37288); assay: In vitro recombinant vasopressin receptor binding assay (V1 Bdg), displacement of 3H-arginine vasopressin; conditions: read-out: V1 Bdg (% inh, 0.1 uM)
T1 construct: expressed in transfected cells; host or cells: HEK-293
How it was run: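 Membranes from HEK-293 cells bearing cloned human V-1 receptor, incubated 1 h at room temperature with 0.65-0.75 nM 3H-arginine-8-vasopressin in pH 7.5 Tris/MgCl2/BSA buffer with protease inhibitors. Filtration onto GF/C, scintillation count. Non-specific binding with 1.25 uM arginine-8-vasopressin.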

[2] = target: T2, V2 (Homo sapiens, UniProt P30518); assay: In vitro recombinant vasopressin receptor binding assay (V2 Bdg), displacement of 3H-arginine vasopressin; design: expressed in transfected cells; host or cells: HEK-293; conditions: membrane with cloned human V-2 receptor (HEK-293)
T2 sequence (P30518 whole entry): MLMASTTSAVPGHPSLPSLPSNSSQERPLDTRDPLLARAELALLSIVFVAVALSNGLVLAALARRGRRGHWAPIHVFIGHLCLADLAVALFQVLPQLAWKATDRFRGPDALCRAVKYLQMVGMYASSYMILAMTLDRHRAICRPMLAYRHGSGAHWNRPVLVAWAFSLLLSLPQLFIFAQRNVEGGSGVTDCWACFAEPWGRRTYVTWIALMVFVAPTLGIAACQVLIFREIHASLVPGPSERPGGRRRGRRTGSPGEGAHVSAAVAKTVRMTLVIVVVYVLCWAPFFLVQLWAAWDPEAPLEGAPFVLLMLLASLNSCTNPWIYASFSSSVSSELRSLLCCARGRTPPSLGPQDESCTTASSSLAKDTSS
How it was run: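 Displacement of ³H-vasopressin from membranes of HEK-293 cells bearing cloned human V-2 receptor, incubated with test compound one hour at room temperature. Bound label was collected on PEI-soaked GF/C filters, washed with cold saline/0.05% Tween 20, and counted by scintillation.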

[3] = system: vasopressin-induced hypertension in anesthetized rats; assay: Reversal of vasopressin-induced hypertension in rats (intraduodenal dosing); type: in vivo, rat; conditions: I.D. dose 10 mg/kg, single dose into the duodenum, maximum percent reversal, monitored for 60 minutes
Experimental: Reversal of Vasopressin-Induced Hypertension in Rats
The anti-hypertensive activity of compounds was screened in an anesthetized model of vasopressin-induced hypertension. Male Long Evans, normotensive rats of between 350 and 450 g in body weight were anesthetized with pentobarbital (35 mg/kg, ip) and maintained throughout the procedure with an ip infusion of 10 mg/kg/hr. Arginine vasopressin was infused at 30 ng/kg/min, iv, to induce a stable hypertensive state (ca. 50 mmHg increase in mean arterial blood pressure). Compounds of interest were administered in an ascending dose fashion and the maximum decrease in mean arterial blood pressure was recorded. An ED50 was determined from the linear portion of the dose-response relationship for each animal.
This model was modified slightly to assess the bioavailability of compounds of interest. Rather than dosing the animals iv in an ascending dose fashion, a single dose per animal was administered directly into the duodenum. The anti-hypertensive effects were then monitored for 60 minutes and the maximum percent reversal was calculated.

[4] = target: T2, V2; assay: V2 cAMP; type: cell-based

T1 sequence (P37288 whole entry): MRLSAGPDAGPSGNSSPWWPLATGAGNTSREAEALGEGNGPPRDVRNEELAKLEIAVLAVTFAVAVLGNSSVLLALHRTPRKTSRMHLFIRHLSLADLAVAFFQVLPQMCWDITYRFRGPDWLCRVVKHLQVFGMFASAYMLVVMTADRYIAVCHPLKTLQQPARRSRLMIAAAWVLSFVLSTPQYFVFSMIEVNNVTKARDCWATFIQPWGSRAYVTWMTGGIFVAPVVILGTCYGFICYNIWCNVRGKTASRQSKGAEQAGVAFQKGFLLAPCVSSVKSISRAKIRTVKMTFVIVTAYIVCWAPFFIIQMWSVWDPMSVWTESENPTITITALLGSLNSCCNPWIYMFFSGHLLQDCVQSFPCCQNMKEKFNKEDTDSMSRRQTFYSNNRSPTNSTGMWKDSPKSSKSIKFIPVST

SMILES | inhibition at 0.1 µM [1] | IC50 [2] | BP Reduction (%) [3] | IC50 [4]
O=C(Nc1ccc(C(=O)N2CC3CCCCN3Cc3ccccc32)cc1)c1ccccc1-c1ccccc1 (stereo not shown) [Compound 1, 10-[4-[[(2-Biphenyl)carbonyl]amino]benzoyl]-10,11-dihydro-5H-piperidino[2,1-c][1,4]benzodiazepine] | 31% | 9 nM | 67% | 210 nM
O=C(Nc1ccc(C(=O)N2C[C@H]3COCCN3Cc3ccccc32)c(Cl)c1)c1ccccc1-c1ccccc1 [Compound 4, (S)-2-Phenyl-N-[3-chloro-4-(1,3,4,12a-tetrahydro-6H-[1,4]oxazino[4,3-a][1,4]-benzodiazepin-11(12H)-yl-carbonyl)phenyl]benzamide] |  | 2 nM | 100% | 11 nM

From US6713475B2, “Tricyclic benzodiazepines as vasopressin receptor antagonists” (Ortho-McNeil Pharmaceutical, Inc., priority 1999, dated 2004)
